In ChEMBL document CHEMBL1201862, “PubChem BioAssay data set” (2004) one finds IC50, EC50 and AC50 data, which are given here for three compounds.

The target in assay [1] is T1, Voltage-gated N-type calcium channel alpha-1B subunit/Amyloid beta A4 precursor protein-binding family A member 1 (Homo sapiens, UniProt Q00975+Q02410). Nature of the assay: disruptors of Mint-PDZ/N-type channel peptide interaction – biochemical, HTRF, SAR follow-up (AID 2489). The format is functional.
For assay [2], the target named is T1, Voltage-gated N-type calcium channel alpha-1B subunit/Amyloid beta A4 precursor protein-binding family A member 1. Nature of the assay: disruptors of Mint-PDZ/N-type channel peptide interaction – biochemical, HTRF, set 2, SAR follow-up (AID 434980). It counts as functional.
For the next assay, the target named is T2, Protein RecA (Mycobacterium tuberculosis, UniProt P9WHJ3).
T2 sequence (P9WHJ3 whole entry): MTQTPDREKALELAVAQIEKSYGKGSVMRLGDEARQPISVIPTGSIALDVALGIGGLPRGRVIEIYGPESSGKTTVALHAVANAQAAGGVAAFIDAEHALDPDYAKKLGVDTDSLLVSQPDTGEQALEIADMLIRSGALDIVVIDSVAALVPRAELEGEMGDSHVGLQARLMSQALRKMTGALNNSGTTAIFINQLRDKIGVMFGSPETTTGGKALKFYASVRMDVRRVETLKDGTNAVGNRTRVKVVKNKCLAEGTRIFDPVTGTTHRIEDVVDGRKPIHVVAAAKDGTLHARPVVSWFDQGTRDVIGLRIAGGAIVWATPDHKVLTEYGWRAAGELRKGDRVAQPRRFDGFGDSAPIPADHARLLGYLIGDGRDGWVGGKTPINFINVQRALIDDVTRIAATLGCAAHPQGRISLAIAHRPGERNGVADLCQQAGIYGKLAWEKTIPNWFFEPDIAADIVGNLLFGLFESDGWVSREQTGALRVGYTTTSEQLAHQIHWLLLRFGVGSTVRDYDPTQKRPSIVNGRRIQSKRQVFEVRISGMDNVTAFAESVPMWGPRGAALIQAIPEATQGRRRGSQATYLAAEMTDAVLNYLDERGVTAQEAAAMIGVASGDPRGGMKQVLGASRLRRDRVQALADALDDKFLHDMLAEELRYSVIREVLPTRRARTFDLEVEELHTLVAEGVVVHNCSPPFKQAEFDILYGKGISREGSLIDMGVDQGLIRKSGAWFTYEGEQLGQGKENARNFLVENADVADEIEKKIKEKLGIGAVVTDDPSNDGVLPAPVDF
Nature of the assay: Fluorescence Cell-Free Homogeneous Dose Retest to Identify Inhibitors of RecA-Intein Splicing Activity. [Related pubchem assays (depositor defined):AID2097, AID2223, AID489010, AID492950]. It counts as functional.

The target in assay [3] is T3, Replicative DNA helicase DnaB (Mycobacterium tuberculosis, UniProt P9WMR3).
T3 sequence (P9WMR3 whole entry): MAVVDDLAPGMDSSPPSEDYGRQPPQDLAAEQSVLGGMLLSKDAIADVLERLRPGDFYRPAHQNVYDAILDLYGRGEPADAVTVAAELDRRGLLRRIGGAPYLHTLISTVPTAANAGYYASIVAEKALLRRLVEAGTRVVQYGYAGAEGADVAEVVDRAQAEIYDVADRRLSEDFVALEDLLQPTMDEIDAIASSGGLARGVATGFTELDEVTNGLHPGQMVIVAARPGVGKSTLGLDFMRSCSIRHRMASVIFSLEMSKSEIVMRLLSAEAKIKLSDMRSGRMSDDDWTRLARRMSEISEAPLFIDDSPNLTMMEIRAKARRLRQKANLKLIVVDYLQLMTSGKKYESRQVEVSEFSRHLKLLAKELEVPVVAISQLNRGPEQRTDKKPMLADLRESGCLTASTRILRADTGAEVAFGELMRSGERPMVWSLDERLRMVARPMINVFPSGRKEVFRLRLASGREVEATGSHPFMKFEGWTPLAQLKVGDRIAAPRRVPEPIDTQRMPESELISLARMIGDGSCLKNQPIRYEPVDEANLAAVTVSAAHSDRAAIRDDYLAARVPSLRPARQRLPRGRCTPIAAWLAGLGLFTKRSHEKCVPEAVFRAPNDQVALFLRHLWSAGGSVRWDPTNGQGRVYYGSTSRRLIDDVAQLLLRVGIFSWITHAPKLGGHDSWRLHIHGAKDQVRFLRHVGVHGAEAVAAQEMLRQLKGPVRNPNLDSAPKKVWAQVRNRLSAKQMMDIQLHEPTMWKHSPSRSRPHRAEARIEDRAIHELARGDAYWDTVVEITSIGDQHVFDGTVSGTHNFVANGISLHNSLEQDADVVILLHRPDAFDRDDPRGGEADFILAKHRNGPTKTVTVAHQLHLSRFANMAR
Nature of the assay: DnaB intein splicing inhibitors, dose response, biochemical, cell-free fluorescence (AID 449749). The format is functional.

The target in the next assay is Caspase-7 (Homo sapiens, UniProt P55210). Nature of the assay: potency of procaspase-7 enzyme activation – biochemical, absorbance, human, dual procaspase-3/-7 activator project, dose response (AID 504330).
The next assay concerns the target T4, Caspase-3 (Homo sapiens, UniProt P42574).
T4 sequence (P42574 whole entry): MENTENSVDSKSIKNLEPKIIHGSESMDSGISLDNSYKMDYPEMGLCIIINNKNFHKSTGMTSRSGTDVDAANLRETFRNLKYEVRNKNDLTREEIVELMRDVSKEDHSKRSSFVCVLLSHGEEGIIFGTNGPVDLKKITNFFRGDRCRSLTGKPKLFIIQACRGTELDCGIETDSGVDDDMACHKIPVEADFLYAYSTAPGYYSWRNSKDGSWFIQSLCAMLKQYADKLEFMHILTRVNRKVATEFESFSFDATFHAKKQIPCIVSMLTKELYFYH
Nature of the assay: activators of human procaspase-3 D3A mutant – biochemical, absorbance, PC-3 D3A mutant, counter-screen for dual procaspase-3/7 activator project, dose response (AID 504328).

The next assay concerns the target Cytochrome P450 2C9 (Homo sapiens, UniProt P11712).
For assay [4], the target named is T5, Trace amine-associated receptor 1 (Homo sapiens, UniProt Q96RJ0).
T5 sequence (Q96RJ0 whole entry): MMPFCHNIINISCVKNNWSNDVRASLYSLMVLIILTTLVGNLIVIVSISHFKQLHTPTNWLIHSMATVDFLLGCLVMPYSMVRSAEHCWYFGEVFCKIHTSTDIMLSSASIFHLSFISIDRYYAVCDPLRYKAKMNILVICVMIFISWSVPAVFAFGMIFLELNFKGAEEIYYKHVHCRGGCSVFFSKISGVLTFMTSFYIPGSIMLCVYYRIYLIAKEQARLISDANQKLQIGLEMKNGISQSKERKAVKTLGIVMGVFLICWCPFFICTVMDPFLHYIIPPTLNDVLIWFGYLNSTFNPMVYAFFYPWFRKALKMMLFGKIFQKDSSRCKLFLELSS
Put plainly: Counterscreen for agonists of the human trace amine associated receptor 1 (hTAAR1): Fluorescence-based cell-based high throughput dose response assay to identify hTAAR1 agonist that also desensitize TAAR1 receptor response. The format is functional.

A further assay concerns HeLa. Put plainly: viability loss in HeLa cells – cell-based, 24 h, cherry-picked samples, cytotoxicity control, dose response (AID 504726).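 Also: potency for cytotoxicity as loss of luminescence signal.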 The format is functional. The note with it: Homo sapiens.
The nature of assay [5]: cells. It counts as functional, cell-based.
In assay [6] the target is DNA (cytosine-5)-methyltransferase 1 (Homo sapiens, UniProt P26358). Put plainly: inhibition of DNA methylation by DNMT1 – biochemical, fluorescent molecular beacon, confirmation (AID 602386). The format is functional.
Assay [7] concerns the target T6, Heat shock 70 kDa protein 1A (Homo sapiens, UniProt P0DMV8). Put plainly: small molecules displacing fluorescent ligand from Hsp70 – biochemical, fluorescence polarization, primary screen (AID 583).
Assay [8] has as its target Protein-tyrosine kinase 2-beta (Homo sapiens, UniProt Q14289).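 Also: potency of inhibitors of PYK2 kinase phosphorylation of poly-GT substrate.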
Assay [9] concerns the target Bifunctional protein GlmU (Mycobacterium tuberculosis, UniProt P9WMN3). Nature of the assay: Inhibitors of Mycobacterial Glucosamine-1-phosphate acetyl transferase (GlmU). Secondary screen. Also noted: species or system Mycobacterium tuberculosis H37Rv.
A short description of assay [10]: cells. The format is functional, cell-based. The source holds these as a separate data set.
Assay [11] concerns the target T7, Zinc finger protein mex-5 (Caenorhabditis elegans, UniProt Q9XUB2).
T7 sequence (Q9XUB2 whole entry): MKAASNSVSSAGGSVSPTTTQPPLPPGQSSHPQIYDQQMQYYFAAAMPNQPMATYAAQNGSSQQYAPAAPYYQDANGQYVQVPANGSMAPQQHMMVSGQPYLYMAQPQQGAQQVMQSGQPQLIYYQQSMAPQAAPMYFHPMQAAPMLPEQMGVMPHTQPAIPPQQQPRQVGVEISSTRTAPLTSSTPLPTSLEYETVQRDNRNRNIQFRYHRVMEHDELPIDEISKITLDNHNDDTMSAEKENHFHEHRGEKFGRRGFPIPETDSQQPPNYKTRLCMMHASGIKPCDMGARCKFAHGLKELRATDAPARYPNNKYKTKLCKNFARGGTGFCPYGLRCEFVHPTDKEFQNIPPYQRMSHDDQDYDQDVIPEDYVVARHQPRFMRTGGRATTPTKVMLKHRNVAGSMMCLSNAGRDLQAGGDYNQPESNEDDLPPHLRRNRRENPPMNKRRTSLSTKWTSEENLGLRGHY
Put plainly: potency of MEX-5 RNA-binding blockers – biochemical, C. elegans, fluorescence polarization, dose response (AID 1960).

The next assay concerns the target Ephrin type-A receptor 4 (Mus musculus, UniProt Q03137). Put plainly: EphA4 ligand-binding antagonists – biochemical, colorimetric, mouse EphA4, primary screen (AID 689). The format is functional.
The target in assay [12] is Mothers against decapentaplegic homolog 3 (Homo sapiens, UniProt P84022). Nature of the assay: inhibitors of SMAD-driven TGF-beta signaling – dose response (AID 715). The format is functional.
The target of assay [13] is T5, Trace amine-associated receptor 1. Put plainly: Fluorescence-based cell-based high throughput dose response assay to identify agonists of the human trace amine associated receptor 1 (TAAR1). The format is functional.
Assay [14] concerns the target T8, Estrogen receptor beta (Homo sapiens, UniProt Q92731).
In the next assay the target is ORF 73 (Human herpesvirus 8, UniProt O40947). Nature of the assay: KSHV LANA DNA-binding disruption – biochemical, fluorescence polarization, cherry-picked samples, dose response (AID 504725).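 Also: fluorescence polarization of a labeled DNA duplex reporting LANA DNA binding; potency is for inhibitors that block LANA binding to the DNA.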 Also noted: species or system Human gammaherpesvirus 8.
The target of assay [15] is T6, Heat shock 70 kDa protein 1A. Nature of the assay: small-molecule inhibition of Hsp70 – biochemical, TR-FRET (AID 786).
Assay [16] addresses T9, RNA-binding protein pos-1 (Caenorhabditis elegans, UniProt G5EF15).
T9 sequence (G5EF15 whole entry): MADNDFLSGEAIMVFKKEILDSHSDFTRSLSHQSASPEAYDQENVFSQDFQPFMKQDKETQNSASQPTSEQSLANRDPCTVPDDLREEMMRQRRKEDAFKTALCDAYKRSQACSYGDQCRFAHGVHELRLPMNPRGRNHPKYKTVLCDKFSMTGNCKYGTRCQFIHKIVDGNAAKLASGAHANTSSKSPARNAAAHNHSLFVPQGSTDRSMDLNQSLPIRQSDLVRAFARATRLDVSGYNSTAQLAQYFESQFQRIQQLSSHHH
Nature of the assay: disruptors of C. elegans POS-1 RNA interaction – biochemical, fluorescence polarization, dose response (AID 1964).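 Also: purified POS-1 fused to maltose binding protein made in E. coli; potency of compounds blocking POS-1 binding to fluorescent RNA.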

In assay [17] the target is T10, Dual specificity protein phosphatase 6 (Rattus norvegicus, UniProt Q64346).
T10 sequence (Q64346 whole entry): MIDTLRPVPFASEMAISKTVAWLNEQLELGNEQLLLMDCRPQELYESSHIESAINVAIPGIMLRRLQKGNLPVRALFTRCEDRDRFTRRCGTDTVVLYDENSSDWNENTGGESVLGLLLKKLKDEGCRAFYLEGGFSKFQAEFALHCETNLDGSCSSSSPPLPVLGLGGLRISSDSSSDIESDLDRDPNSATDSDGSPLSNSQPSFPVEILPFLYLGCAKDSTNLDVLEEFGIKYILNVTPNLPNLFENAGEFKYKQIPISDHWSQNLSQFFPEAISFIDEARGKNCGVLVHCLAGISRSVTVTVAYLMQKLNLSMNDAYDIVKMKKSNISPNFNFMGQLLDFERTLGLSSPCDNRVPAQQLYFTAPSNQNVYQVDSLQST
Nature of the assay: inhibition of rat DUSP6 enzyme activity – biochemical, in vitro, primary screen (AID 425).

The target in a further assay is Bcl-2-like protein 10 (Homo sapiens, UniProt Q9HD36). Put plainly: Bcl-B/TR3 peptide binding disruption – biochemical, fluorescence polarization, FITC-TR3 peptide, selectivity assay for Bfl-1 inhibitor project, primary screen (AID 748).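 Also: fluorescence polarization from a fluorescein-labelled TR3 peptide binding purified Bcl-B.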
Assay [18] addresses T8, Estrogen receptor beta. Put plainly: blockers of SRC-3 recruitment to ERβ – biochemical, ELISA, streptavidin-HRP readout, orthogonal assay, confirmation (AID 1060).

The source made the active and inactive calls. Where only a bound is given, the exact number is not on record here.

T1 sequence (Q00975 whole entry): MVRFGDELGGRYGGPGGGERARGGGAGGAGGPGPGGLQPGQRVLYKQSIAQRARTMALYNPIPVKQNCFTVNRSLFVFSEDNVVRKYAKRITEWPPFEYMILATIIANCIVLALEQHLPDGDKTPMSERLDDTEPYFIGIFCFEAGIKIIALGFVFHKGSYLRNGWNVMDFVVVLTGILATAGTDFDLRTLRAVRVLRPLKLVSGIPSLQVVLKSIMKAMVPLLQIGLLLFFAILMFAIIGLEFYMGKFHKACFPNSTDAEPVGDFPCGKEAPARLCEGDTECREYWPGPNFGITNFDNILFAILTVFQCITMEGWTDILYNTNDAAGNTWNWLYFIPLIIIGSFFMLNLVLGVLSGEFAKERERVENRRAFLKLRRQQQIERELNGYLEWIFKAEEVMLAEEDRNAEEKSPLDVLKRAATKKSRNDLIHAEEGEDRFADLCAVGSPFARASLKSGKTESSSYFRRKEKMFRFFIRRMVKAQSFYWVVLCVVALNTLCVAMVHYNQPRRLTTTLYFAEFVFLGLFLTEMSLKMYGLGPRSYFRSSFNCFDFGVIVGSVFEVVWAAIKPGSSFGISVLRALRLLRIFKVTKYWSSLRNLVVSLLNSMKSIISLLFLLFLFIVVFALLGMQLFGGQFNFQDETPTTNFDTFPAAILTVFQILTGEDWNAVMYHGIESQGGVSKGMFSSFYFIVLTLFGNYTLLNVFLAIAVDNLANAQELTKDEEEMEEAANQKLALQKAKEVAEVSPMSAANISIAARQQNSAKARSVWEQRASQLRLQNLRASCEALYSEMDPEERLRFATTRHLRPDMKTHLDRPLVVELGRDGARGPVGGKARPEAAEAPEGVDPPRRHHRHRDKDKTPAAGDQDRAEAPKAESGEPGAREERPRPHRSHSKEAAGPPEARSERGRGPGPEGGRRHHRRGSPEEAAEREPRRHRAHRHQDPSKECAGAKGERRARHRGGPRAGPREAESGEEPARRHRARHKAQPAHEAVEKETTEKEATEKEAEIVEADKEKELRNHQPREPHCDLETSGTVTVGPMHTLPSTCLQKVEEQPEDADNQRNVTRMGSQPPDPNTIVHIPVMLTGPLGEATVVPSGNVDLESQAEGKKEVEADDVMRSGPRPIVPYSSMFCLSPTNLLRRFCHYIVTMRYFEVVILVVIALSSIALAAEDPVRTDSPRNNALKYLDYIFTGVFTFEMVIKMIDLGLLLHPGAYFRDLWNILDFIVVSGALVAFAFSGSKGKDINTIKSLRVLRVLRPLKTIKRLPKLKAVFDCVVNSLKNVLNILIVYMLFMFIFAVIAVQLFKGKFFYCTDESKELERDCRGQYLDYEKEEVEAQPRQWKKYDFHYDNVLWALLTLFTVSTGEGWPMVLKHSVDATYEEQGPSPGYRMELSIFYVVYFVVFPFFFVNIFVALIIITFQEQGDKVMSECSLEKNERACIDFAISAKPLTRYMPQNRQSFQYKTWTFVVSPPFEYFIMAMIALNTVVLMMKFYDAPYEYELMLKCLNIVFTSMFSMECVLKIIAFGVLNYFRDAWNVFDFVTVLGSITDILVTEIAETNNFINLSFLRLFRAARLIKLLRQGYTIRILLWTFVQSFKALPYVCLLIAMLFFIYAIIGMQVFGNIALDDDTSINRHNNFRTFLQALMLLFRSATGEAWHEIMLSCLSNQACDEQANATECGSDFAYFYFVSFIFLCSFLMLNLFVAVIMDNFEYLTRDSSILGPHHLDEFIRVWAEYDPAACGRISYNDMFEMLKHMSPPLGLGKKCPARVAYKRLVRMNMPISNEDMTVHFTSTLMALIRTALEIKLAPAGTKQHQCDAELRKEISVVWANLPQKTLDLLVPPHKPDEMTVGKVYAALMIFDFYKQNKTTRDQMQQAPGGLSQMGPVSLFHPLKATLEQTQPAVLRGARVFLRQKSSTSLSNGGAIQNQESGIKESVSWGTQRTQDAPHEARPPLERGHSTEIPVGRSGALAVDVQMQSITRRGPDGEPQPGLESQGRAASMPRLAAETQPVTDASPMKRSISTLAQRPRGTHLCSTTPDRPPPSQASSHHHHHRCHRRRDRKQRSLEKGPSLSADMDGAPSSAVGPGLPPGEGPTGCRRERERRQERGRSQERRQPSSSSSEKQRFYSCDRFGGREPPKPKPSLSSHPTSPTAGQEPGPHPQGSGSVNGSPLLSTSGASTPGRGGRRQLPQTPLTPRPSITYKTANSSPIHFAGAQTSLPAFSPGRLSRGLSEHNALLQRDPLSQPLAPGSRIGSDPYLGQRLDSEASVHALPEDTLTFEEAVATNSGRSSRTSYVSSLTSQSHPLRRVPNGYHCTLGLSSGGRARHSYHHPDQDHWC
T1 sequence (Q02410 whole entry): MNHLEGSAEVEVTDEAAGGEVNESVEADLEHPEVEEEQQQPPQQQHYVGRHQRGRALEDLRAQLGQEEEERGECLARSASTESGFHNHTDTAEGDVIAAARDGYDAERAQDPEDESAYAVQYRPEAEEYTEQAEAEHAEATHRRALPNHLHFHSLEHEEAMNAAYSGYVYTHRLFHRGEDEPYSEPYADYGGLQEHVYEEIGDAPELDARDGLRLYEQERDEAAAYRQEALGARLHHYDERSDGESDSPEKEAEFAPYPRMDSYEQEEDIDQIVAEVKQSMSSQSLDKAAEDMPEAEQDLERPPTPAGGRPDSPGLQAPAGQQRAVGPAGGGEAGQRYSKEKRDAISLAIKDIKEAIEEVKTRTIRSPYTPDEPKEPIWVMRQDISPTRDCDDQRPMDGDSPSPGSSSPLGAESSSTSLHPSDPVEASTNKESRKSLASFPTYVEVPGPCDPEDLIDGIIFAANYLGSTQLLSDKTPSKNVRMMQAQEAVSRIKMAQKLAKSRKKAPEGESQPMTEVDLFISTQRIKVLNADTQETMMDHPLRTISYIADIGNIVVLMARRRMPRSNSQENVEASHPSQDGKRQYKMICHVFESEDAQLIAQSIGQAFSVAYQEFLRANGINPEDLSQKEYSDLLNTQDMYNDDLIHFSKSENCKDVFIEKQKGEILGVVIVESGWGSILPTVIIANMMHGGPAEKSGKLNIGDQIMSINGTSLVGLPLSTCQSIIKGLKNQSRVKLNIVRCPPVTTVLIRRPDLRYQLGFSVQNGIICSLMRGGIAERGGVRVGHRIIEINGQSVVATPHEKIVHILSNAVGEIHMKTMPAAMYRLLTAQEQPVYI
T6 sequence (P0DMV8 whole entry): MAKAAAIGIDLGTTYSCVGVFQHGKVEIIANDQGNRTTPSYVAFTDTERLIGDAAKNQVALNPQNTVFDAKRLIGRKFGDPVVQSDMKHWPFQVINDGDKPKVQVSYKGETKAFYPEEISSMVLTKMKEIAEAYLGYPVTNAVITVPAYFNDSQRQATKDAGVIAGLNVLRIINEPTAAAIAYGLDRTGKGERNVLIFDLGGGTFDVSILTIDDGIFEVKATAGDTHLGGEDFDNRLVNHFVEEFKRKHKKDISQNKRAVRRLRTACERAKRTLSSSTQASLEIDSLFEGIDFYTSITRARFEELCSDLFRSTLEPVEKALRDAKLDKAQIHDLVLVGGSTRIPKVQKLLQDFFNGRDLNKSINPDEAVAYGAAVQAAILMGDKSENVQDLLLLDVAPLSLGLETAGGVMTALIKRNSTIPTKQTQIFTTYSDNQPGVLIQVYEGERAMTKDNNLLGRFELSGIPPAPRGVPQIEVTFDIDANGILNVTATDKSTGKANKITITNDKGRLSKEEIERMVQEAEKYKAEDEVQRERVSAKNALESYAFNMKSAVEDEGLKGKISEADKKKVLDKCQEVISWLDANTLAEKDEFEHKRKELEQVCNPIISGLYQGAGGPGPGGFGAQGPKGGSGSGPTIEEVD
T8 sequence (Q92731 whole entry): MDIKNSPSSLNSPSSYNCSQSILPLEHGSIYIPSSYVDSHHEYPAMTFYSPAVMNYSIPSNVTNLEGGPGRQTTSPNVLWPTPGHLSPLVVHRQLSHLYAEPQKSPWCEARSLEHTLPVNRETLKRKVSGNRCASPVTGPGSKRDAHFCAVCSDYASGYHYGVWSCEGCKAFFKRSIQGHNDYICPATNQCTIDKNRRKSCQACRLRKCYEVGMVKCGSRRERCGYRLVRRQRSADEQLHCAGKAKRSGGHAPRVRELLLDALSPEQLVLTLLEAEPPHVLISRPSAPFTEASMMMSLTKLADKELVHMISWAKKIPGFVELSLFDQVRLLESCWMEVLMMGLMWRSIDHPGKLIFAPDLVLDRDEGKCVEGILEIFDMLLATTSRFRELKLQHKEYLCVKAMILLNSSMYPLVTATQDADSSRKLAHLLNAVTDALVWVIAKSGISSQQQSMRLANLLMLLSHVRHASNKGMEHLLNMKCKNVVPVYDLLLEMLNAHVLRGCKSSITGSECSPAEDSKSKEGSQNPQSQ
Sequence of Cytochrome P450 2C9 (P11712 whole entry): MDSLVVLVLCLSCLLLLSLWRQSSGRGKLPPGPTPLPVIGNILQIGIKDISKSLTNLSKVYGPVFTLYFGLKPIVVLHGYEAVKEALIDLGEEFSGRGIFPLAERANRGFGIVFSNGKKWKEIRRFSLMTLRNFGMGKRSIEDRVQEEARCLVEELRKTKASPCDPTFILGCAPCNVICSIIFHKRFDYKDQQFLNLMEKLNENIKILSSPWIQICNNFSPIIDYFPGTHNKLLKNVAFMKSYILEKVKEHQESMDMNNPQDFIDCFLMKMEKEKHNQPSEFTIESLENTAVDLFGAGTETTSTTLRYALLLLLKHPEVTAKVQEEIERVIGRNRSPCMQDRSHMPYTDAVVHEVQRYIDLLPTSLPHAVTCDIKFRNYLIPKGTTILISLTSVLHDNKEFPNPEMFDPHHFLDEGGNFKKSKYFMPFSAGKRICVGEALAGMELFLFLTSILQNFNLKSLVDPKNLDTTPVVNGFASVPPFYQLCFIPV
Sequence of Bcl-2-like protein 10 (Q9HD36 whole entry): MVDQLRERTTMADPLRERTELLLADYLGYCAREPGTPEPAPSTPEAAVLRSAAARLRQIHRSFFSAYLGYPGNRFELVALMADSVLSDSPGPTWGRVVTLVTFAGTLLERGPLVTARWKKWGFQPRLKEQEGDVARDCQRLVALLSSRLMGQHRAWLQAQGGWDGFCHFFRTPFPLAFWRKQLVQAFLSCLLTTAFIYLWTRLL

For `O=C(NCCc1ccncc1)c1cc(-c2ccco2)nc2ccccc12`, the IC50 in [1] and in assay [2] was > 56.8 µM (inactive) each time.

As for `Cc1n[nH]c2c1C(c1c[nH]c3ccccc13)C(C#N)=C(N)O2` (stereo unspecified), the EC50 at Protein RecA is 2.03 µM (active); on Caspase-7 it was 27.8 µM (inactive); on Caspase-3, 23.1 µM (inactive). Also, in assay [3], the AC50 is 3.79 µM (active).

For the compound `CC1(C)CCCN(C(=O)c2coc(=O)c(Br)c2)C1`, the AC50 on Cytochrome P450 2C9 is 28.2 µM (inconclusive); with HeLa, 96.3 µM (active); at ORF 73, 71.2 µM (active). In addition, the IC50 was 2.41 µM (active) in assay [4]; > 29.9 µM (inactive) in the assay “cells [5]”; 2.92 µM (active) in [6]; 13.1 µM (active) in [7]; 5.23 µM (active) in assay [8]; 21.2 µM (active) in assay [9]. Further, the IC50 at Ephrin type-A receptor 4 is 8.98 µM (active); in assay [12], 14 µM (active); at Estrogen receptor beta [14] it was < 1.56 µM (active); in assay [15], 8.32 µM (active); in assay [17] it was > 10 µM (not active); on Bcl-2-like protein 10 it was 6.54 µM (active). Besides, the IC50 at Estrogen receptor beta [18] was 93.2 µM (not active). Besides, the EC50 in the assay “cells [10]” was > 29.9 µM (inactive); in [11] it was 68.3 µM (active); in [13] it was 0.827 µM (active); in assay [16] it was > 300 µM (not active).
